Starred links: 1 amine or outer side, 2 acyl side, 3 side chain; linkers in the order of their positions; H or OH if unused. Positions of bridges follow the written chain, without caps; N, C: chain ends. Non-standard residues stand in square brackets, D forms with d. Residues, ends and D or L forms follow the SMILES beside them. Trp(7-aza) = N[C@@H](Cc1c[nH]c2ncccc12)C(=O)O; mXylylene = c1cc(C[*:1])cc(C[*:2])c1; oXylylene = c1ccc(C[*:2])c(C[*:1])c1; dChg = N[C@@H](C(=O)O)C1CCCCC1; Phg = N[C@H](C(=O)O)c1ccccc1; Tle = CC(C)(C)[C@H](N)C(=O)O; NMeS = CN[C@@H](CO)C(=O)O; Pra = C#CC[C@H](N)C(=O)O; Nva = CCC[C@H](N)C(=O)O; Sar = CNCC(=O)O
Target: C5 (Homo sapiens, UniProt P01031)
Assay: Human hemolysis assay (RBC lysis assay using complete human sera)
Type: cell-based
Design: with complete human sera (Complement Technology, Tyler Tex.) and polypeptides; tissue Complement Technology, Tyler Tex; host or cells: complete human serum
[1] = inhibition of lysis of antibody-sensitized sheep erythrocytes, complete human sera
[2] = C-terminally truncated polypeptide variants of R3021, inhibition of red blood cell lysis

C5, sequence (P01031 19-1676): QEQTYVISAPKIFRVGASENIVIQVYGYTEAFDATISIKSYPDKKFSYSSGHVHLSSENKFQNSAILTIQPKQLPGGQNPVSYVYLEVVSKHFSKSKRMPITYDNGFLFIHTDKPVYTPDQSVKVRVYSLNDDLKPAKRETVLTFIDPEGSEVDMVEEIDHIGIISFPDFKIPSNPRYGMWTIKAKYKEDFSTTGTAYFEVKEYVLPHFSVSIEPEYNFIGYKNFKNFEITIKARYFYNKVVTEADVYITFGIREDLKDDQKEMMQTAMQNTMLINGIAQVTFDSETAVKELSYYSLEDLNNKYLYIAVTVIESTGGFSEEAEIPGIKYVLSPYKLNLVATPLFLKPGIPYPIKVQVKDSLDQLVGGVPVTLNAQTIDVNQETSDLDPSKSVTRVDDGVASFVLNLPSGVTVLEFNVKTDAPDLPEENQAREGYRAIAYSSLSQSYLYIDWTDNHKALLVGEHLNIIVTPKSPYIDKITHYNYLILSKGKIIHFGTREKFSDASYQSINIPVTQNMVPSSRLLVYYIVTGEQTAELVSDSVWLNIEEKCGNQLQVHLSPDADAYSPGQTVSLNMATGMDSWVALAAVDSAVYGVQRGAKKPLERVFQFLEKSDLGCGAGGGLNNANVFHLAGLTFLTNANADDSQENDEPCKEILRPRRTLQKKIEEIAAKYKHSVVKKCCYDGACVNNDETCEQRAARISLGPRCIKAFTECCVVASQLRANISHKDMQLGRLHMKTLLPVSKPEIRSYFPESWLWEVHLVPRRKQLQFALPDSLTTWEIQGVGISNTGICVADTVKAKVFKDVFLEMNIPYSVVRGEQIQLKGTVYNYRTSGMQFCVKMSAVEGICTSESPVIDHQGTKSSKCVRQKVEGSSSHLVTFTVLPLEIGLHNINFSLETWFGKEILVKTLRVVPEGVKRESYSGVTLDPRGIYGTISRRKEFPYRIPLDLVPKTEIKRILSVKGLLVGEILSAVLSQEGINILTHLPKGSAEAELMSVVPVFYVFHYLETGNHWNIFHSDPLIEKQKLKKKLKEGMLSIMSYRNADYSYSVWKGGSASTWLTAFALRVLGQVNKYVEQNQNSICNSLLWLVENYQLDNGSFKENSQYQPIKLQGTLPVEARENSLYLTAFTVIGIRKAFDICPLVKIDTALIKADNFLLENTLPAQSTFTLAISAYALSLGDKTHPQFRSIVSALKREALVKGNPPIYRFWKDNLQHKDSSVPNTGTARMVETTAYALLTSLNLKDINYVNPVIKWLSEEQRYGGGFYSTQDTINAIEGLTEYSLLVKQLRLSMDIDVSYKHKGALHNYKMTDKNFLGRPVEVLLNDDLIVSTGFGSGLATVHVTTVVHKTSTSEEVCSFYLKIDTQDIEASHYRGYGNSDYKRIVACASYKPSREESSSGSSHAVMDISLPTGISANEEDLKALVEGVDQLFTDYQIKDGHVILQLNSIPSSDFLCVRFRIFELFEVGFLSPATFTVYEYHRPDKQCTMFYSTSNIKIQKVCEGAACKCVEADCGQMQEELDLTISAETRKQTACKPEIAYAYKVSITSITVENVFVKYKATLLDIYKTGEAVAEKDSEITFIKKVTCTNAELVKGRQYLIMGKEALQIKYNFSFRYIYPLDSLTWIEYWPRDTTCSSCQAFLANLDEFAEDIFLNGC

CCC[C@H](NC(C)=O)C(=O)N[C@@H](CS)C(=O)N[C@@H](Cc1ccc(O)cc1)C(=O)N[C@@H](Cc1c[nH]c2ncccc12)C(=O)N(C)CC(=O)N[C@H](C(=O)N[C@@H](CCC)C(=O)N[C@@H](Cc1c[nH]c2ncccc12)C(=O)N[C@@H](CCC(=O)O)C(=O)N[C@@H](Cc1ccc(O)cc1)C(=O)N1CCC[C@H]1C(=O)N[C@H](C(=O)N1CCC[C@H]1C(N)=O)c1ccccc1)C(C)(C)C [Compound R3005, Ac-Nvl-C-Y-azaTrp-(N-Me)G-Tbg-Nvl-azaTrp-E-Y-P-Phg-P-NH2] (Ac-[Nva]CY[Trp(7-aza)][Sar][Tle][Nva][Trp(7-aza)]EYP[Phg]P-NH2)
IC50 [1]: 0.0667 µM

CCC[C@H](NC(=O)[C@@H](NC(=O)[C@@H]1CCCN1C(=O)[C@@H]1CSCc2cccc(c2)CSC[C@H](NC(=O)[C@H](CCC)NC(C)=O)C(=O)N[C@@H](Cc2ccc(O)cc2)C(=O)N[C@@H](CCC(=O)O)C(=O)N[C@@H](CC(N)=O)C(=O)N[C@@H](C(C)(C)C)C(=O)N[C@@H](Cc2ccc(O)cc2)C(=O)N[C@@H](Cc2c[nH]c3ncccc23)C(=O)N[C@@H](CCC(=O)O)C(=O)N1)c1ccccc1)C(N)=O [Compound R3018, [mXylyl(2,10)]Ac-Nvl-C-Y-E-N-Tbg-Y-azaTrp-E-C-P-Phg-Nvl-NH2] (Ac-[Nva]CYEN[Tle]Y[Trp(7-aza)]ECP[Phg][Nva]-NH2; linker 2-10 via mXylylene)
IC50 [1]: > 5.73 µM

CCC[C@H](NC(=O)[C@@H]1CCCN1C(=O)[C@H](CCC)NC(=O)[C@H](CS)NC(=O)[C@H](Cc1c[nH]cn1)NC(=O)[C@H](CO)N(C)C(=O)[C@H](Cc1ccc(O)cc1)NC(=O)[C@H](CCC(=O)O)NC(=O)[C@H](Cc1c[nH]c2ncccc12)NC(=O)[C@@H](NC(=O)[C@@H](NC(=O)[C@H](CS)NC(=O)[C@H](CCC)NC(C)=O)c1ccccc1)[C@@H](C)O)C(N)=O [Compound R3022, Ac-Nvl-C-Phg-T-azaTrp-E-Y-(N-Me)S-H-C-Nvl-P-Nvl-NH2] (Ac-[Nva]C[Phg]T[Trp(7-aza)]EY[NMeS]HC[Nva]P[Nva]-NH2)
IC50 [1]: > 10.2 µM

CCC[C@H](NC(=O)[C@@H]1CSCc2cccc(c2)CSC[C@H](NC(=O)[C@H](C)NC(C)=O)C(=O)N[C@@H](c2ccccc2)C(=O)N[C@@H]([C@@H](C)O)C(=O)N[C@@H](Cc2c[nH]c3ncccc23)C(=O)N[C@@H](CCC(=O)O)C(=O)N[C@@H](Cc2ccc(O)cc2)C(=O)N(C)[C@@H](CO)C(=O)N[C@@H](Cc2c[nH]cn2)C(=O)N1)C(N)=O [Compound R3031, [mXylyl(2,10)]Ac-A-C-Phg-T-azaTrp-E-Y-(N-Me)S-H-C-Nvl-NH2] (Ac-AC[Phg]T[Trp(7-aza)]EY[NMeS]HC[Nva]-NH2; linker 2-10 via mXylylene)
IC50 [1]: 1.09 µM

CCC[C@H](NC(=O)[C@@H]1CSCc2cccc(c2)CSC[C@H](NC(=O)[C@H](CCC)NC(C)=O)C(=O)N[C@@H](c2ccccc2)C(=O)N[C@@H]([C@@H](C)O)C(=O)N[C@@H](Cc2c[nH]c3ncccc23)C(=O)N[C@@H](CCC(=O)O)C(=O)N[C@@H](Cc2ccc(O)cc2)C(=O)N(C)[C@@H](CO)C(=O)N1)C(N)=O [Compound R3080, [mXylyl(2,9)]Ac-Nvl-C-Pha-T-azaTrp-E-Y-(N-Me)S-C-Nvl-NH2] (Ac-[Nva]C[Phg]T[Trp(7-aza)]EY[NMeS]C[Nva]-NH2; linker 2-9 via mXylylene)
IC50 [1]: > 50 µM

CSCC[C@H](N)C(=O)N[C@H]1CSCc2cccc(c2)CSC[C@@H](C(=O)N[C@@H](CC(=O)O)C(=O)N[C@H](C(=O)N[C@@H](Cc2ccc(O)cc2)C(N)=O)C(C)C)NC(=O)[C@H](Cc2ccccc2)NC(=O)[C@H](CCCNC(=N)N)NC(=O)[C@H](CCC(=O)O)NC(=O)[C@H](C(C)C)NC1=O [Compound R3045, [mXylyl(2,7)]M-C-V-E-R-F-C-D-V-Y-NH2] (H-MCVERFCDVY-NH2; linker 2-7 via mXylylene)
IC50 [2]: > 100 µM
IC50 [1]: > 100 µM

CCC[C@H](NC(C)=O)C(=O)N[C@H]1CSCc2cccc(c2)CSC[C@@H](C(=O)N[C@@H](C)C(N)=O)NC(=O)[C@H](Cc2c[nH]cn2)NC(=O)[C@H](CO)N(C)C(=O)[C@H](Cc2ccc(O)cc2)NC(=O)[C@H](CCC(=O)O)NC(=O)[C@H](Cc2c[nH]c3ncccc23)NC(=O)[C@H]([C@@H](C)O)NC(=O)[C@H](c2ccccc2)NC1=O [Compound R3039, [mXylyl(2,10)]Ac-Nvl-C-Phg-T-azaTrp-E-Y-(N-Me)S-H-C-A-NH2] (Ac-[Nva]C[Phg]T[Trp(7-aza)]EY[NMeS]HCA-NH2; linker 2-10 via mXylylene)
IC50 [1]: 0.24 µM

C#CC[C@H](NC(=O)[C@H](Cc1ccccc1)NC(=O)[C@H](CCC(=O)O)NC(=O)[C@H](Cc1c[nH]c2ccccc12)NC(=O)[C@H](Cc1ccc(O)cc1)NC(=O)[C@@H](NC(=O)[C@H](CC(=O)O)NC(=O)[C@@H]1CSCc2cccc(c2)CSC[C@H](NC(C)=O)C(=O)N[C@@H](C(C)C)C(=O)N[C@@H](CCC(=O)O)C(=O)N[C@@H](CCCNC(=N)N)C(=O)N[C@@H](Cc2ccccc2)C(=O)N1)C(C)C)C(N)=O [Compound R3147, [mXylyl(1,6)]Ac-C-V-E-R-F-C-D-V-Y-W-E-F-Propargyl-Gly-NH2] (Ac-CVERFCDVYWEF[Pra]-NH2; linker 1-6 via mXylylene)
IC50 [1]: 0.138 µM

CCC[C@H](NC(=O)[C@@H](NC(=O)[C@@H]1CCCN1C(=O)[C@H](Cc1ccc(O)cc1)NC(=O)[C@H](CCC(=O)O)NC(=O)[C@@H]1CSCc2cccc(c2)CSC[C@H](NC(=O)[C@H](CCC)NC(C)=O)C(=O)N[C@@H](Cc2ccc(O)cc2)C(=O)N[C@@H](CCC(=O)O)C(=O)N[C@@H](CC(N)=O)C(=O)N[C@@H](C(C)(C)C)C(=O)N[C@@H](Cc2ccc(O)cc2)C(=O)N1)c1ccccc1)C(N)=O [Compound R3017, [mXylyl(2,8)]Ac-Nvl-C-Y-E-N-Tbg-Y-C-E-Y-P-Phg-Nvl-NH2] (Ac-[Nva]CYEN[Tle]YCEYP[Phg][Nva]-NH2; linker 2-8 via mXylylene)
IC50 (7-azatryptophan variant polypeptides of R3002, inhibition of red blood cell lysis): > 100 µM
IC50 [1]: > 100 µM

CCC[C@H](NC(=O)[C@@H]1CSCc2cccc(c2)CSC[C@H](NC(=O)[C@H](CCC)NC(C)=O)C(=O)N[C@H](C2CCCCC2)C(=O)N[C@@H]([C@@H](C)O)C(=O)N[C@@H](Cc2c[nH]c3ncccc23)C(=O)N[C@@H](CCC(=O)O)C(=O)N[C@@H](Cc2ccc(O)cc2)C(=O)N(C)[C@@H](CO)C(=O)N[C@@H](C)C(=O)N1)C(N)=O [Compound R3093, [mXylyl(2,10)]Ac-Nvl-C-(D-Chg)-T-azaTrp-E-Y-(N-Me)S-A-C-Nvl-NH2] (Ac-[Nva]C[dChg]T[Trp(7-aza)]EY[NMeS]AC[Nva]-NH2; linker 2-10 via mXylylene)
IC50 [1]: > 100 µM

CSCC[C@H](N)C(=O)N[C@H]1CSCc2cccc(c2)CSC[C@@H](C(N)=O)NC(=O)[C@H](Cc2ccccc2)NC(=O)[C@H](CCCNC(=N)N)NC(=O)[C@H](CCC(=O)O)NC(=O)[C@H](C(C)C)NC1=O [Compound R3047, [mXylyl(2,7)]M-C-V-E-R-F-C-NH2] (H-MCVERFC-NH2; linker 2-7 via mXylylene)
IC50 [2]: > 100 µM
IC50 [1]: > 100 µM

CC(=O)N[C@H]1CSCc2cccc(c2)CSC[C@@H](C(=O)N[C@@H](CC(=O)O)C(=O)N[C@H](C(=O)N[C@@H](Cc2ccc(O)cc2)C(=O)N[C@@H](Cc2c[nH]c3ccccc23)C(=O)N[C@@H](CCC(=O)O)C(=O)N[C@@H](Cc2ccccc2)C(=O)N2CCC[C@H]2C(N)=O)C(C)C)NC(=O)[C@H](Cc2ccccc2)NC(=O)[C@H](CCCNC(=N)N)NC(=O)[C@H](CCC(=O)O)NC(=O)[C@H](C(C)C)NC1=O [Compound R3141, [mXylyl(1,6)]Ac-C-V-E-R-F-C-D-V-Y-W-E-F-P-NH2] (Ac-CVERFCDVYWEFP-NH2; linker 1-6 via mXylylene)
IC50 [1]: 0.0245 µM

CCC[C@H](NC(=O)[C@@H]1CSCc2cccc(c2)CSC[C@H](NC(=O)[C@H](CCC)NC(C)=O)C(=O)N[C@@H](c2ccccc2)C(=O)N[C@@H]([C@@H](C)O)C(=O)N[C@@H](Cc2c[nH]c3ncccc23)C(=O)N[C@@H](C)C(=O)N[C@@H](Cc2ccc(O)cc2)C(=O)N(C)[C@@H](CO)C(=O)N[C@@H](Cc2c[nH]cn2)C(=O)N1)C(N)=O [Compound R3035, [mXylv1(2,10)]Ac-Nvl-C-Phg-T-azaTrp-A-Y-(N-Me)S-H-C-Nvl-NH2] (Ac-[Nva]C[Phg]T[Trp(7-aza)]AY[NMeS]HC[Nva]-NH2; linker 2-10 via mXylylene)
IC50 [1]: > 50 µM

CCC[C@H](NC(=O)[C@@H](NC(=O)[C@@H]1CCCN1C(=O)[C@H](Cc1ccc(O)cc1)NC(=O)[C@H](CCC(=O)O)NC(=O)[C@H](Cc1c[nH]c2ncccc12)NC(=O)[C@H](Cc1ccc(O)cc1)NC(=O)[C@@H](NC(=O)[C@H](CC(=O)O)NC(=O)[C@@H]1CSCc2cccc(c2)CSC[C@H](NC(C)=O)C(=O)N[C@@H](C(C)C)C(=O)N[C@@H](CCC(=O)O)C(=O)N[C@@H](C)C(=O)N[C@@H](Cc2ccccc2)C(=O)N1)C(C)(C)C)c1ccccc1)C(N)=O [Compound R3153, [mXylyl(1,6)]Ac-C-V-E-A-F-C-D-Tba-Y-azaTrp-E-Y-P-Phg-Nvl-NH2] (Ac-CVEAFCD[Tle]Y[Trp(7-aza)]EYP[Phg][Nva]-NH2; linker 1-6 via mXylylene)
IC50 [1]: 0.175 µM

CCC[C@H](NC(=O)[C@@H]1CSCc2cccc(c2)CSC[C@H](NC(=O)[C@H](CCC)NC(C)=O)C(=O)N[C@@H](c2ccccc2)C(=O)N[C@@H]([C@@H](C)O)C(=O)N[C@@H](Cc2ccccc2)C(=O)N[C@@H](CCC(=O)O)C(=O)N[C@@H](Cc2ccc(O)cc2)C(=O)N(C)[C@@H](CO)C(=O)N[C@@H](C)C(=O)N1)C(N)=O [Compound R3092, [mXylyl(2,10)]Ac-Nvl-C-Phg-T-F-E-Y-(N-Me)S-A-C-Nvl-NH2] (Ac-[Nva]C[Phg]TFEY[NMeS]AC[Nva]-NH2; linker 2-10 via mXylylene)
IC50 (7-azatryptophan variant polypeptides of R3008, inhibition of red blood cell lysis): > 50 µM
IC50 [1]: > 50 µM

CCC[C@H](NC(=O)[C@@H]1CSCc2ccccc2CSC[C@H](NC(=O)[C@H](CCC)NC(C)=O)C(=O)N[C@@H](c2ccccc2)C(=O)N[C@@H]([C@@H](C)O)C(=O)N[C@@H](Cc2c[nH]c3ncccc23)C(=O)N[C@@H](CCC(=O)O)C(=O)N[C@@H](Cc2ccc(O)cc2)C(=O)N(C)[C@@H](CO)C(=O)N[C@@H](Cc2c[nH]cn2)C(=O)N1)C(N)=O [Compound R3049, [oXylyl(2,10)]Ac-Nvl-C-Phg-T-azaTrp-E-Y-(N-Me)S-H-C-Nvl-NE2] (Ac-[Nva]C[Phg]T[Trp(7-aza)]EY[NMeS]HC[Nva]-NH2; linker 2-10 via oXylylene)
IC50 [1]: > 3.1 µM

— patent US10208089B2, “Modulation of complement activity” (priority 2014, dated 2019)
